The source of these data is patent US4221793A, “N,N'-Disubstituted piperazine derivative” (priority 1977, dated 1980).

Structures are written as SMILES. Converted amounts (≈) assume the structure as drawn. Where two headings read alike, the source gives them in different places.

Data set [1] deals with mice. Put plainly: Tetrabenazine catalepsy test on mice, influence on the duration of catalepsy. Conditions: for Effect in tetrabenazine catalepsy test compared with imipramine: in words. In kind it is in vivo, mouse. As for the experimental part:
(§1) The pharmacological activity of the substance according to the invention was investigated in the tetrabenazine catalepsy test and in the reserpine antagonism test at the mouse.
Mice in groups of 10 animals each were given 15 mg/kg of tetrabenazine i.p. 30 minutes after administration of the test substance. The onset of a cataleptic condition is assessed on a 2-step round cork on to which the animals are placed so that they touch the bottom step with their head and forepaws and the upper step with their hind paws. Such a position is corrected immediately by a normal animal. For assessment, the reaction of the animals is observed every 60 seconds. The inhibition of catatonia is calculated in percentage values in relation to a control group.

Data set [2] relates to mice. Put plainly: Reserpine antagonism test on mice. In kind it is in vivo, mouse. The conditions noted are these: in words.
Source text: as §1

Data set [3] relates to isolated guinea-pig heart. In words: Activity on the isolated guinea-pig heart (Langendorff): coronary circulation and contraction level. The conditions noted are these: for Effect on coronary vessels / circulation / Influence on contraction level of the isolated heart: in words.
In data set [4] the test system is isolated guinea-pig intestines. Put plainly: Spasmolytic activity on isolated guinea-pig intestines (Magnus). Conditions: for IC50: Cavia porcellus. Here is the method:
The compound according to the invention has also been examined for its influenece on coronary circulation and on the heart mechanogram in isolated guinea-pig hearts according to the method of Langendorff (Langendorff, O., Pfluegers Arch. 61 (1895), 219) as well as for its spasmolytic activity on isolated guinea-pig intestines according to the method of Magnus (Magnus, R., Pflugers Arch. 102 (1904), 123). In this latter case, the spasmolytic activity was determined in relation to 0.2 μg/ml of histamine and 100 μg/ml of barium chloride.

The subject of data set [5] is mice. The conditions noted are these: mouse, in vivo, po.
Data set [6] can be described thus: Acute toxicity test on mice (LD50). The conditions noted are these: mouse, in vivo.
Data set [7] relates to mice. Put plainly: Acute toxicity test on mice (LD50). Conditions: in words.
A short description of data set [8]: Side-effect activities (cardiotoxic, central nervous system, sedation, vegetative nervous system). Conditions: therapeutically relevant doses.
Where [9] appears, read: against 0.2 μg/ml histamine, read-out: Spasmolytic activity as ED50 relative to histamine.
Setting [10] is: against 100 μg/ml barium chloride, read-out: Spasmolytic activity as ED50 relative to BaCl2.

In general, LD50 refers to the dose expected to kill half of the subjects tested.

Consider `COc1ccc2oc(C(=O)N3CCN(Cc4ccccc4)CC3)cc2c1` [According to the invention, N-(5-Methoxybenzofuran-2-ylcarbonyl)-N'-benzylpiperazine], for which the “Change of duration of catalepsy relative to control” value in the data set on mice [1] (20 mg/kg p.o., 20 min post appl., n=40) was -62 ± 26%. For the same compound, the “Effect in tetrabenazine catalepsy test compared with imipramine” value in the data set on mice [1] is recorded as “substantially stronger effect than the comparison substance”. Further, the “Effect in tetrabenazine catalepsy test compared with imipramine” value in the data set on mice [1] (listed as substance according to the invention) is listed as “substantially stronger effect than the commercially available comparison substance, imipramine”. In addition, in the data set on mice [2], the “Activity in reserpine antagonism test compared with comparison substance” value is given as “substantially equal in activity compared with the comparison substance”. Moreover, the activation at 0.05 mg in data set [3] (Cavia porcellus, dose 50 μg, read-out: Change in coronary circulation) amounted to 39%. Also, the inhibition at 0.05 mg in data set [3] (Cavia porcellus, dose 50 μg, read-out: Influence on contraction level) was 0%. In addition, in data set [3], the “Effect on coronary vessels / circulation” value is reported as “causes a dilation of the coronary vessels” and the “Influence on contraction level of the isolated heart” value is “does not influence the contraction level of the isolated heart”. Besides, the IC50 in data set [4] (setting [9]) lay within 5 to 10 µg/mL (≈ 14.3 to 28.5 µM). Besides, the IC50 in data set [4] (setting [10]) was 5 to 10 µg/mL (≈ 14.3 to 28.5 µM). Moreover, in data set [4] (in words), the Spasmolytic activity entry is given as “only small”. Also, the “Influence on the peripheral vegetative nervous system” value in data set [4] (in words, concluded from spasmolytic activity) is “influenced only slightly, if at all”. In the data set with mice [5], the “Compatibility (tolerability) compared with comparison preparation” value is recorded as “more than ten times more compatible than the comparison preparation”. The compound further returned a median lethal dose (LD50) in data set [6] (ip) of 548 mg/kg. In addition, the LD50 in data set [6] (po) was > 4000 mg/kg. The “Toxicity compared with imipramine” value with mice [7] is given as “considerably lower toxicity”. Further, in data set [8], the Cardiotoxic activity entry is on record as “has not shown in therapeutically relevant doses any cardiotoxic”, the “Central nervous system stimulation activity” value is “has not shown”, the “Influence on the vegetative nervous system” value is recorded as “has not shown” and the Sedation activity result is recorded as “has not shown”.

`CN(C)CCCN1c2ccccc2CCc2ccccc21` [Imipramine]: the activation at 0.01 mg in data set [3] (Cavia porcellus, dose 10 μg, first value of pair, read-out: Change in coronary circulation (initial brief increase)) is 19%. Also, the inhibition at 0.01 mg in data set [3] (Cavia porcellus, dose 10 μg, read-out: Influence on contraction level) is 25%; in data set [3] (Cavia porcellus, dose 10 μg, second value of pair, read-out: Change in coronary circulation (subsequent constriction)), 18%. In addition, in data set [3] (Cavia porcellus, dose 20 μg, first value of pair, read-out: Change in coronary circulation (initial brief increase)), the activation at 0.02 mg is 28%. The inhibition at 0.02 mg in data set [3] (Cavia porcellus, dose 20 μg, read-out: Influence on contraction level) was determined as 25%; in data set [3] (Cavia porcellus, dose 20 μg, second value of pair, read-out: Change in coronary circulation (subsequent constriction)), 29%. Moreover, the activation at 0.03 mg in data set [3] (Cavia porcellus, dose 30 μg, first value of pair, read-out: Change in coronary circulation (initial brief increase)) was 84%. The inhibition at 0.03 mg in data set [3] (Cavia porcellus, dose 30 μg, read-out: Influence on contraction level) came to 50%; in data set [3] (Cavia porcellus, dose 30 μg, second value of pair, read-out: Change in coronary circulation (subsequent constriction)) it was 22%. In addition, the “Effect on coronary vessels / circulation” value in data set [3] is reported as “causes initially a brief increase in circulation, this then changes to a constriction”. Besides, the “Influence on contraction level of the isolated heart” value in data set [3] was “heart damage which is shown by the reduction of the heart contraction”. The IC50 in data set [4] (setting [9]) was 0.001 µg/mL (≈ 0.00357 µM); in data set [4] (setting [10]) it was 0.1 to 1 µg/mL (≈ 0.357 to 3.57 µM).
